Assay results taken from US8012956B2, “Tropane compounds” (Exelixis, Inc., priority 2007, dated 2011).

These compounds were tested against HSP90 (Homo sapiens, UniProt P07900) (assay: HSP90 inhibition (HSP90 IC50)).
Type: biochemical

Row | Compound | IC50 [nM]
1 | N4-(8-{5-[({(1S)- 1-[4-(4- methylpiperazin-1- yl)phenyl]ethyl}amino)carbonyl]pyridin- 2-yl}-8-azabicyclo[3.2.1]oct-3- endo-yl)-2-(phenylamino)benzene- 1,4-dicarboxamide | < 500
2 | CC(=O)c1ccc(N2C3CCC2CC(NC(=O)c2ccc(C(N)=O)c(NCCN)c2)C3)nc1 (stereo not drawn) [N4-[8-(5-acetylpyridin-2-yl)-8-azabicyclo[3.2.1]oct-3-endo-yl]-2-[(2-aminoethyl)amino]benzene-1,4-dicarboxamide] | < 500
3 | CC(C)CC(=O)c1ccc(N2[C@@H]3CC[C@H]2C[C@@H](NC(=O)c2ccc(C(N)=O)c(NCC4CC4)c2)C3)nc1 [2-[(cyclopropylmethyl)amino]-N4-{8-[5-(3-methylbutanoyl)pyridin-2-yl]-8-azabicyclo[3.2.1]oct-3-endo-yl}benzene-1,4-dicarboxamide] | 1000 to 2000
4 | COc1cccc(C(=O)N[C@H]2C[C@H]3CC[C@@H](C2)N3c2ccc(C(=O)NCc3cccc(Cl)c3)cn2)c1C [N-[(3-chlorophenyl)methyl]-6-[3-endo-({[2-methyl-3-(methyloxy)phenyl]carbonyl}amino) 8-azabicyclo[3.2.1]oct-8-yl]pyridine-3-carboxamide] | 2000 to 10000
5 | COc1ccc([C@@H](C)NC(=O)c2ccc(N3C4CCC3CC(NC(=O)c3cccc(OC)c3C)C4)nc2)cc1 (stereo partly drawn) [6-[3-endo-({[2-methyl-3-(methyloxy)phenyl]carbonyl}amino)-8-azabicyclo[3.2.1]oct-8-yl]-N-{(1R)-1-[4-(methyloxy)phenyl]ethyl}pyridine-3-carboxamide] | 2000 to 10000
6 | COc1cccc(C(=O)N[C@H]2C[C@H]3CC[C@@H](C2)N3c2ccc(C(=O)NCc3ccc(N4CCCC4)cc3)cn2)c1C [6-[3-endo-({[2-methyl-3-(methyloxy)phenyl]carbonyl}amino)-8-azabicyclo[3.2.1]oct-8-yl]-N-[(4-pyrrolidin-1-ylphenyl)methyl]pyridine-3-carboxamide] | 500 to 999
7 | COc1cccc(C(=O)N[C@H]2C[C@H]3CC[C@@H](C2)N3c2ccc(C(=O)NC(C)C)cn2)c1C [N-(1-methylethyl)-6-[3-endo-({[2-methyl-3-(methyloxy)phenyl]carbonyl}amino)-8-azabicyclo[3.2.1]oct-8-yl]pyridine-3-carboxamide] | 1000 to 2000
8 | COc1cccc(C(=O)N[C@H]2C[C@H]3CC[C@@H](C2)N3c2ccc(C(=O)NCCCN3CCOCC3)cn2)c1C [6-[3-endo-({[2-methyl-3-(methyloxy)phenyl]carbonyl}amino)-8-azabicyclo[3.2.1]oct-8-yl]-N-(3-morpholin-4-ylpropyl)pyridine-3-carboxamide] | 500 to 999
9 | COc1ccccc1CNC(=O)c1ccc(N2[C@@H]3CC[C@H]2C[C@@H](NC(=O)c2cccc(OC)c2C)C3)nc1 [6-[3-endo-({[2-methyl-3-(methyloxy)phenyl]carbonyl}amino)-8-azabicyclo[3.2.1]oct-8-yl]-N-{[2-(methyloxy)phenyl]methyl}pyridine-3-carboxamide] | 1000 to 2000
10 | COC[C@H](C)NC(=O)c1ccc(N2C3CCC2CC(NC(=O)c2cccc(OC)c2C)C3)nc1 (stereo partly drawn) [N-[(1S)-1-methyl-2-(methyloxy)ethyl]-6-[3-endo-({[2-methyl-3-(methyloxy)phenyl]carbonyl}amino)-8-azabicyclo[3.2.1]oct-8-yl]pyridine-3-carboxamide] | 1000 to 2000
11 | CC(C)C(=O)c1ccc(N2[C@@H]3CC[C@H]2C[C@@H](NC(=O)c2ccc(C(N)=O)c(NCC4CC4)c2)C3)nc1 | 1000 to 2000
12 | COc1cccc(C(=O)N[C@H]2C[C@H]3CC[C@@H](C2)N3c2ccc(C(=O)NCCCC(OC)OC)cn2)c1C [N-[4,4-bis(methyloxy)butyl]-6-[3-endo-({[2-methyl-3-(methyloxy)phenyl]carbonyl}amino)-8-azabicyclo[3.2.1]oct-8-yl]pyridine-3-carboxamide] | 1000 to 2000
13 | COc1cccc(C(=O)N[C@H]2C[C@H]3CC[C@@H](C2)N3c2ccc(C(=O)NC3CCC3)cn2)c1C [N-cyclobutyl-6-[3-endo-({[2-methyl-3-(methyloxy)phenyl]carbonyl}amino)-8-azabicyclo[3.2.1]oct-8-yl]pyridine-3-carboxamide] | 500 to 999
14 | CCCNC(=O)c1ccc(N2[C@@H]3CC[C@H]2C[C@@H](NC(=O)c2cccc(OC)c2C)C3)nc1 [6-[3-endo-({[2-methyl-3-(methyloxy)phenyl]carbonyl}amino)-8-azabicyclo[3.2.1]oct-8-yl]-N-propylpyridine-3-carboxamide] | 1000 to 2000

Results, then the compound that gave them:

Row | IC50 [nM] | Compound
15 | 500 to 999 | CC(=O)c1ccc(N2[C@@H]3CC[C@H]2C[C@@H](NC(=O)c2ccc(C(N)=O)c(NCC(F)(F)C(F)(F)C(F)(F)F)c2)C3)nc1 [N4-[8-(5-acetylpyridin-2-yl)-8-azabicyclo[3.2.1]oct-3-endo-yl]-2-[(2,2,3,3,4,4,4-heptafluorobutyl)amino]benzene-1,4-dicarboxamide]
16 | < 500 | CCC(CC)Nc1cc(C(=O)N[C@H]2C[C@H]3CC[C@@H](C2)N3c2ccc(C(=O)C3CC3)cn2)c(C(F)(F)F)cc1C(N)=O [N-{8-[5-(cyclopropylcarbonyl)pyridine-2-yl]-8-azabicyclo[3.2.1]oct-3-endo-yl}-5-[(1-ethylpropyl)amino]-2-(trifluoromethyl)benzene-1,4-dicarboxamide]
17 | < 500 | CC(C)(C)CNc1cc(C(=O)N[C@H]2C[C@H]3CC[C@@H](C2)N3c2ccc(C(=O)C3CC3)cn2)c(Br)cc1C(N)=O [2-bromo-N-{8-[5-(cyclopropylcarbonyl)pyridin-2-yl]-8-azabicyclo[3.2.1]oct-3-endo-yl}-5-[(2,2-dimethylpropyl)amino]benzene-1,4-dicarboxamide]
18 | < 500 | NC(=O)c1cc(Cl)c(C(=O)N[C@H]2C[C@H]3CC[C@@H](C2)N3c2ccc(C(=O)NCc3ccccc3)cn2)cc1Cl [2,5-dichloro-N-[8-(5-{[(phenylmethyl)amino]carbonyl}pyridin-2-yl)-8-azabicyclo[3.2.1]oct-3-endo-yl]benzene-1,4-dicarboxamide]
19 | < 500 | C[C@H](NC(=O)c1ccc(N2C3CCC2CC(NC(=O)c2ccc(C(N)=O)c(NCC4CC4)c2)C3)nc1)c1ccc(N2CCN(C)CC2)cc1 (stereo partly drawn) [2-[(cyclopropylmethyl)amino]-N4-(8-{5-[({(1S)-1-[4-(4-methylpiperazin-1-yl)phenyl]ethyl}amino)carbonyl]pyridin-2-yl}-8-azabicyclo[3.2.1]oct-3-endo-yl)benzene-1,4-dicarboxamide]
20 | 500 to 999 | COc1cccc(C(=O)NC2CC3CCC(C2)N3c2ccc(C(=O)NCCC3CCCN3C)cn2)c1C (stereo not drawn) [6-[3-endo-({[2-methyl-3-(methyloxy)phenyl]carbonyl}amino)-8-azabicyclo[3.2.1]oct-8-yl]-N-[2-(1-methylpyrrolidin-2-yl)ethyl]pyridine-3-carboxamide]
21 | < 500 | CCN(CC)CCOc1cccc(CNC(=O)c2ccc(N3[C@@H]4CC[C@H]3C[C@@H](NC(=O)c3cccc(OC)c3C)C4)nc2)c1 [N-[(3-{[2-(diethylamino)ethyl]oxy}pheny)methyl]-6-[3-endo-({[2-methyl-3-(methyloxy)phenyl]carbonyl}amino)-8-azabicyclo[3.2.1]oct-8-yl]pyridine-3-carboxamide]
22 | < 500 | Cc1cc(C(N)=O)c(NC(C)C)cc1C(=O)N[C@H]1C[C@H]2CC[C@@H](C1)N2c1ccc(C(=O)C2CC2)cn1 [N-{8-[5-(cyclopropylcarbonyl)pyridin-2-yl]-8-azabicyclo[3.2.1]oct-3-endo-yl}-2-methyl-5-[(1-methylethyl)amino]benzene-1,4-dicarboxamide]
23 | < 500 | COc1c(C(N)=O)ccc(C(=O)NC2CC3CCC(C2)N3c2ccc(C(=O)N[C@@H](C)c3ccc(N4CCN(C)CC4)cc3)cn2)c1C (stereo partly drawn) [2-methyl-3-(methyloxy)-N-(8-{5-[({(1S)-1-[4-(4-methylpiperazin-1-yl)phenyl]ethyl}amino)carbonyl]pyridin-2-yl}-8-azabicyclo[3.2.1]oct-3-endo-yl)benzene-1,4-dicarboxamide]
24 | < 500 | C[C@H](NC(=O)c1ccc(N2C3CCC2CC(NC(=O)c2ccc(C(N)=O)c(Nc4ccncc4)c2)C3)nc1)c1ccc(N2CCN(C)CC2)cc1 (stereo partly drawn)
25 | < 500 | COc1cccc(C(=O)N[C@H]2C[C@H]3CC[C@@H](C2)N3c2ccc(C(=O)NCc3cnc(C)cn3)cn2)c1C [6-[3-endo-({[2-methyl-3-(methyloxy)phenyl]carbonyl}amino)-8-azabicyclo[3.2.1]oct-8-yl]-N-[(5-methylpyrazin-2-yl)methyl]pyridine-3-carboxamide]
26 | < 500 | NC(=O)c1ccc(C(=O)N[C@H]2C[C@H]3CC[C@@H](C2)N3c2ccc(C(=O)CCN3CCCC3)cn2)cc1NCC1CC1 [2-[(cyclopropylmethyl)amino]-N4-{8-[5-(3-pyrrolidin-1-ylpropanoyl)pyridin-2-yl]-8-azabicyclo[3.2.1]oct-3-endo-yl}benzene-1,4-dicarboxamide]
27 | < 500 | COc1cccc(C(=O)NC2CC3CCC(C2)N3c2ccc(C(=O)N[C@@H]3CCN(Cc4ccccc4)C3)cn2)c1C (stereo partly drawn) [6-[3-endo-({[2-methyl-3-(methyloxy)phenyl]carbonyl}amino)-8-azabicyclo[3.2.1]oct-8-yl]-N-[(3R)-1-(phenylmethyl)pyrrolidin-3-yl]pyridine-3-carboxamide]
28 | < 500 | COc1cccc(C(=O)NC2CC3CCC(C2)N3c2ccc(C(=O)NC(C)c3ccc(Cl)cc3)cn2)c1C (stereo not drawn) [N-[1-(4-chlorophenyl)ethyl]-6-[3-endo-({[2-methyl-3-(methyloxy)phenyl]carbonyl}amino)-8-azabicyclo[3.2.1]oct-8-yl]pyridine-3-carboxamide]
29 | < 500 | Cc1cc(C(N)=O)c(NC(C)C(F)F)cc1C(=O)N[C@H]1C[C@H]2CC[C@@H](C1)N2c1ccc(C(=O)C2CC2)cn1 (stereo partly drawn) [N-{8-[5-(cyclopropylcarbonyl)pyridin-2-yl]-8-azabicyclo[3.2.1]oct-3-endo-yl}-5-[(2,2-difluoro-1-methylethyl)amino]-2-methylbenzene-1,4-dicarboxamide]
30 | < 500 | CCC(CC)Nc1cc(C(=O)N[C@H]2C[C@H]3CC[C@@H](C2)N3c2ccc(C(=O)C3CC3)cn2)c(Br)cc1C(N)=O [2-bromo-N-{8-[5-(cyclopropylcarbonyl)pyridin-2-yl]-8-azabicyclo[3.2.1]oct-3-endo-yl}-5-[(1-ethylpropyl)amino]benzene-1,4-dicarboxamide]
